Drawing on patent publication US8530490B2, “Uracil compound or salt thereof having human deoxyuridine triphosphatase inhibitory activity” (Taiho Pharmaceutical Co., Ltd., priority 2008, dated 2013), this text covers IC50 for 32 molecules.

This experiment deals with human dUTPase (Homo sapiens (Human), UniProt P33316). Put plainly: Human dUTPase inhibitory effect: production of [5-3H]dUMP from [5-3H]dUTP, measured by HPLC with flow scintillation. As to conditions: [5-3H]dUMP production from [5-3H]dUTP, 37° C., 15 minutes. The experiment is classed as biochemical. A digest of the protocol: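 E. coli-expressed purified human dUTPase reacted with 1 μM dUTP stock containing [5-3H]dUTP in Tris pH 7.4, MgCl2, 2-mercaptoethanol and albumin, 15 min at 37° C; stopped by 1 min at 100° C. [5-3H]dUMP formed was separated by reversed-phase ion-pair HPLC and quantified by flow scintillation versus water control.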
Chain of human dUTPase (P33316 94-252): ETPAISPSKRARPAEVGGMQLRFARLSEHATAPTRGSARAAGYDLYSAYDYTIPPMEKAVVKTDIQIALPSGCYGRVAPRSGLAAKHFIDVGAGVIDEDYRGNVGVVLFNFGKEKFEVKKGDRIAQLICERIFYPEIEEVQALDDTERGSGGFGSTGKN

As a reminder, the IC50 is the concentration at which inhibition is half-maximal. Molecule `O=c1ccn(CCCS(=O)(=O)NC(c2ccccc2)c2cccc(OCC3CC3)c2)c(=O)[nH]1` (centres unmarked) [Example 112, N-((3-(cyclopropylmethoxy)phenyl)(phenyl)methyl)-3-(2,4-dioxo-3,4-dihydropyrimidin-1(2H)-yl)propane-1-sulfonamide] displayed an IC50 of 2.23 µM.

In turn, `O=c1ccn(C/C=C/CCS(=O)(=O)NCc2cccc(OCC3CC3)c2)c(=O)[nH]1` [Example 113, (E)-N-(3-(cyclopropylmethoxy)benzyl)-5-(2,4-dioxo-3,4-dihydropyrimidin-1(2H)-yl)pent-3-ene-1-sulfonamide] showed an IC50 of 0.41 µM.

Turning to `O=c1ccn(CCCS(=O)(=O)N[C@H](c2ccc(F)cc2)c2cccc(OCC3CC3)c2)c(=O)[nH]1` [Example 114, (R)—N-((3-(cyclopropylmethoxy)phenyl)(4-fluorophenyl)methyl)-3-(2,4-dioxo-3,4-dihydropyrimidin-1(2H)-yl)propane-1-sulfonamide], the IC50 amounted to 0.58 µM. The molecule `CC[C@@H](NS(=O)(=O)CCCn1ccc(=O)[nH]c1=O)c1ccc(F)c(OCC2CC2)c1` [Example 115, (R)—N-(1-(3-(cyclopropylmethoxy)-4-fluorophenyl)propyl)-3-(2,4-dioxo-3,4-dihydropyrimidin-1(2H)-yl)propane-1-sulfonamide] had an IC50 of 0.25 µM. Then `O=c1ccn(CCCS(=O)(=O)N[C@H](c2ccc(F)cc2)c2ccc(F)c(OCC3CC3)c2)c(=O)[nH]1` [Example 116, (R)—N-((3-(cyclopropylmethoxy)-4-fluorophenyl)(4-fluorophenyl)methyl)-3-(2,4-dioxo-3,4-dihydropyrimidin-1(2H)-yl)propane-1-sulfonamide], with 0.35 µM; and `CC[C@@H](NS(=O)(=O)CCCn1ccc(=O)[nH]c1=O)c1ccccc1` [Example 118, (R)-3-(2,4-dioxo-3,4-dihydropyrimidin-1(2H)-yl)-N-(1-phenylpropyl)propane-1-sulfonamide], with 9.8 µM; and `O=c1ccn(CC2CCN(S(=O)(=O)NCc3cccc(OCC4CC4)c3)CC2)c(=O)[nH]1` [Example 128, N-(3-(cyclopropylmethoxy)benzyl)-4-((2,4-dioxo-3,4-dihydropyrimidin-1(2H)-yl)methyl)piperidine-1-sulfonamide], with 0.27 µM.

Molecule `O=c1ccn(CCCS(=O)(=O)N2CCC[C@@H]2C(O)(c2ccccc2)c2ccccc2)c(=O)[nH]1` [Example 130, (R)-1-(3-(2-(hydroxydiphenylmethyl)pyrrolidin-1-ylsulfonyl)propyl)pyrimidine-2,4(1H, 3H)-dione] registered an IC50 of 0.48 µM. Then `O=c1ccn(CCCS(=O)(=O)N2CCC[C@@H]2C(O)(c2ccc(F)cc2)c2ccc(F)cc2)c(=O)[nH]1` [Example 131, (R)-1-(3-(2-(bis(4-fluorophenyl)(hydroxy)methyl)pyrrolidin-1-ylsulfonyl)propyl)pyrimidine-2,4(1H, 3H)-dione], with 0.4 µM; and `O=c1ccn(CCCS(=O)(=O)N2CCC[C@@H]2C(O)(c2cccc(F)c2)c2cccc(F)c2)c(=O)[nH]1` [Example 132, (R)-1-(3-(2-(bis(3-fluorophenyl)(hydroxy)methyl)pyrrolidin-1-ylsulfonyl)propyl)pyrimidine-2,4(1H, 3H)-dione], with 0.38 µM. The result for `CN(CC1(c2ccccc2)CC1)S(=O)(=O)CCCn1ccc(=O)[nH]c1=O` [Example 133, 3-(2,4-dioxo-3,4-dihydropyrimidin-1(2H)-yl)-N-methyl-N-((1-phenylcyclopropyl)methyl)propane-1-sulfonamide] reads 6.56 µM. In turn, `CN(CCc1cccc(OCC2CC2)c1)S(=O)(=O)CCCn1ccc(=O)[nH]c1=O` [Example 134, N-(3-(cyclopropylmethoxy)phenethyl)-3-(2,4-dioxo-3,4-dihydropyrimidin-1(2H)-yl)-N-methylpropane-1-sulfonamide] displayed an IC50 of 4.54 µM. `COc1cccc(S(=O)(=O)NC(C)(C)CCCOCn2ccc(=O)[nH]c2=O)c1` [Example 135, N-(5-((2,4-dioxo-3,4-dihydropyrimidin-1(2H)-yl)methoxy)-2-methylpentan-2-yl)-3-methoxybenzenesulfonamide] displayed an IC50 of 1.12 µM. Then `CC(C)(CCCOCn1ccc(=O)[nH]c1=O)NS(=O)(=O)c1ccc(Cl)cc1` [Example 136, 4-chloro-N-(5-((2,4-dioxo-3,4-dihydropyrimidin-1(2H)-yl)methoxy)-2-methylpentan-2-yl)benzenesulfonamide], with 3.94 µM; and `CC(C)(CCCOCn1ccc(=O)[nH]c1=O)NS(=O)(=O)c1ccc(Cl)c(Cl)c1` [Example 137, 3,4-dichloro-N-(5-((2,4-dioxo-3,4-dihydropyrimidin-1(2H)-yl)methoxy)-2-methylpentan-2-yl)benzenesulfonamide], with 2.05 µM.

`CC(C)(CCCOCn1ccc(=O)[nH]c1=O)NS(=O)(=O)c1cc(Cl)c(Cl)s1` [Example 138, 4,5-dichloro-N-(5-((2,4-dioxo-3,4-dihydropyrimidin-1(2H)-yl)methoxy)-2-methylpentan-2-yl)thiophene-2-sulfonamide] registered a concentration for half-maximal inhibition (IC50) of 3.89 µM. The result for `CC(C)(CCCOCn1ccc(=O)[nH]c1=O)NS(=O)(=O)c1cc(Cl)cc(Cl)c1` [Example 139, 3,5-dichloro-N-(5-((2,4-dioxo-3,4-dihydropyrimidin-1(2H)-yl)methoxy)-2-methylpentan-2-yl)benzenesulfonamide] reads 4.99 µM; that for `CC(C)(CCCOCn1ccc(=O)[nH]c1=O)NS(=O)(=O)c1cccc(Br)c1` [Example 141, 3-bromo-N-(5-((2,4-dioxo-3,4-dihydropyrimidin-1(2H)-yl)methoxy)-2-methylpentan-2-yl)benzenesulfonamide], 4.35 µM; that for `CC(C)(CCCOCn1ccc(=O)[nH]c1=O)NS(=O)(=O)c1ccccc1Cl` [Example 142, 2-chloro-N-(5-((2,4-dioxo-3,4-dihydropyrimidin-1(2H)-yl)methoxy)-2-methylpentan-2-yl)benzenesulfonamide], 7.64 µM.

`CC(C)(CCCOCn1ccc(=O)[nH]c1=O)NS(=O)(=O)c1cccc(OC(F)F)c1` [Example 145, 3-(difluoromethoxy)-N-(5-((2,4-dioxo-3,4-dihydropyrimidin-1(2H)-yl)methoxy)-2-methylpentan-2-yl)benzenesulfonamide] yielded an IC50 of 6.29 µM. The molecule `CC(C)(CCCOCn1ccc(=O)[nH]c1=O)NS(=O)(=O)c1cccc(OC(=O)c2ccccc2)c1` [Example 146, 3-(N-(5-((2,4-dioxo-3,4-dihydropyrimidin-1(2H)-yl)methoxy)-2-methylpentan-2-yl)sulfamoyl)phenylbenzoate] returned an IC50 of 8.68 µM. The result for `CN(C)c1cccc2c(S(=O)(=O)NC(C)(C)CCCOCn3ccc(=O)[nH]c3=O)cccc12` [Example 147, 5-(dimethylamino)-N-(5-((2,4-dioxo-3,4-dihydropyrimidin-1(2H)-yl)methoxy)-2-methylpentan-2-yl)naphthalene-1-sulfonamide] reads 9.5 µM. The result for `CC(C)(CCCOCn1ccc(=O)[nH]c1=O)NS(=O)(=O)c1cccc(Cl)c1` [Example 148, 3-chloro-N-(5-((2,4-dioxo-3,4-dihydropyrimidin-1(2H)-yl)methoxy)-2-methylpentan-2-yl)benzenesulfonamide] reads 2.77 µM; that for `CC(C)(CCCOCn1ccc(=O)[nH]c1=O)NS(=O)(=O)c1cc(Br)c(Br)s1` [Example 149, 4,5-dibromo-N-(5-((2,4-dioxo-3,4-dihydropyrimidin-1(2H)-yl)methoxy)-2-methylpentan-2-yl)thiophene-2-sulfonamide], 7.65 µM; that for `CC(C)(CCCOCn1ccc(=O)[nH]c1=O)NS(=O)(=O)c1cccc(F)c1` [Example 150, N-(5-((2,4-dioxo-3,4-dihydropyrimidin-1(2H)-yl)methoxy)-2-methylpentan-2-yl)-3-fluorobenzenesulfonamide], 5.67 µM. The result for `Cc1ccccc1S(=O)(=O)NC(C)(C)CCCOCn1ccc(=O)[nH]c1=O` [Example 151, N-(5-((2,4-dioxo-3,4-dihydropyrimidin-1(2H)-yl)methoxy)-2-methylpentan-2-yl)-2-methylbenzenesulfonamide] reads 5.7 µM. Take `Cc1cccc(S(=O)(=O)NC(C)(C)CCCOCn2ccc(=O)[nH]c2=O)c1` [Example 154, N-(5-((2,4-dioxo-3,4-dihydropyrimidin-1(2H)-yl)methoxy)-2-methylpentan-2-yl)-3-methylbenzenesulfonamide]: the IC50 is 8.82 µM. The result for `CC(C)(CCCOCn1ccc(=O)[nH]c1=O)NS(=O)(=O)c1ccccc1Br` [Example 156, 2-bromo-N-(5-((2,4-dioxo-3,4-dihydropyrimidin-1(2H)-yl)methoxy)-2-methylpentan-2-yl)benzenesulfonamide] reads 8.94 µM.

Turning to `CC(C)(CCCOCn1ccc(=O)[nH]c1=O)NS(=O)(=O)c1ccccc1` [Example 158, N-(5-((2,4-dioxo-3,4-dihydropyrimidin-1(2H)-yl)methoxy)-2-methylpentan-2-yl)benzenesulfonamide], the midpoint of inhibition, the IC50, lay at 9.48 µM. The molecule `CC(C)(CCCOCn1ccc(=O)[nH]c1=O)NS(=O)(=O)c1cccc(OCC2CC2)c1` [Example 159, 3-(cyclopropylmethoxy)-N-(5-((2,4-dioxo-3,4-dihydropyrimidin-1(2H)-yl)methoxy)-2-methylpentan-2-yl)benzenesulfonamide] yielded an IC50 of 0.26 µM. Consider `CC(C)(CCCOCn1ccc(=O)[nH]c1=O)NS(=O)(=O)c1cccc(OCC(F)F)c1` [Example 160, 3-(2,2-difluoroethoxy)-N-(5-((2,4-dioxo-3,4-dihydropyrimidin-1(2H)-yl)methoxy)-2-methylpentan-2-yl)benzenesulfonamide], for which the IC50 came out at 0.14 µM. The result for `CC(C)(CCCOCn1ccc(=O)[nH]c1=O)NS(=O)(=O)c1cccc(OC2CCCC2)c1` [Example 161, 3-(cyclopentyloxy)-N-(5-((2,4-dioxo-3,4-dihydropyrimidin-1(2H)-yl)methoxy)-2-methylpentan-2-yl)benzenesulfonamide] reads 0.24 µM.
